# Test results published in patent publication EP2931723B1, “NEW BICYCLIC COMPOUNDS AND THEIR USE AS ANTIBACTERIAL AGENTS AND -LACTAMASE INHIBITORS” (Fedora Pharmaceuticals Inc., priority 2012, dated 2014).
# What was measured:
# Experiment in all cases: MIC, antibacterial and synergistic activity
# Format in all cases: cell-based
# E. coli JMI 10770 = conditions: Escherichia coli, JMI10770; E. coli JMI 10770 (CTX-M15 (Hyper ESBL)); substance alone
# E. coli ATCC 25922 = E. coli ATCC 25922 (Wt)
# K.pneumo JMI 4109 = K.pneumo JMI 4109 (SHV-1, SHV-12); substance alone
# E. coli JMI 10768 = E. coli JMI 10768 (CTX-M15 (Weak ESBL)); Meropenem + inhibitor at 4 µg/mL
# E. coli JMI 11103 = system: E. coli JMI 11103
# E. cloacae JMI 36 = E. cloacae JMI 36 (P99)
# K. pneumo JMI 4106 = K. pneumo JMI 4106 (KPC-3, TEM-1, SHV-12, SHV-141)
# E.coli JMI 4103 = E.coli JMI 4103 (KPC-2, Tem-1, CMY-Type)
# K. pneumo JMI 2693 = K. pneumo JMI 2693 (NDM-1 (Cpase))
# Description: (§1) In the Tables 10 - 12, compounds herein disclosed were tested in combination with various antibiotics against metallo β-lactamase producing bacteria.
# E. coli JMI 2692 = E. coli JMI 2692 (NDM-1, TEM-1, CTX-M-15)
# Description: as §1
# K. pneumo JMI 2697 = K. pneumo JMI 2697 (IMP-4 (Cpase))
# Description: as §1
# K. pneumo JMI 2674 = K. pneumo JMI 2674 (CTX-M15 (ESBL)); substance alone
# E. coli JMI 2671 = system: E. coli JMI 2671
# How it was run: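 Combination MIC assay. The β-lactamase inhibitor is kept at 4 µg/mL while antibiotic susceptibility of MBL-expressing isolates is determined.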
# E. coli JMI 2665 = system: E. coli JMI 2665
# Description: In the Tables 10 - 12, compounds herein disclosed were tested in combination with various antibiotics against metallo β-lactamase producing bacteria. Table 3: Synergy of the inhibitor Ex. 1 (4 µg/mL) in combination with antibiotics
# P. aerug JMI 149 = P. aerug JMI 149 (Bla+++D+)
# E. coli JMI 10767 = E. coli JMI 10767 (Wt)
# E. coli JMI 4080 = system: E. coli JMI 4080
# K. pneumo JMI 2681 = K. pneumo JMI 2681 (Oxa-48 (Cpase))
# K. pneumo JMI 4088 = K. pneumo JMI 4088 (KPC-3 (Cpase)); substance alone
# P. aerug JMI 2686 = P. aerug JMI 2686 (KPC-2 (Cpase)); substance alone
# A. baumanii JMI 2659 = A. baumanii JMI 2659 (Ges-14 (Cpase))
# K. pneumo JMI 2673 = K. pneumo JMI 2673 (CTX-M14 (ESBL)); substance alone
# [1] = Aztreonam + inhibitor at 4 µg/mL
# [2] = Ceftazidime + inhibitor at 4 µg/mL
# [3] = Meropenem + inhibitor at 4 µg/mL
smiles,measurement,setting,value
"O=C(NO[C@H]1CCNC1)[C@@H]1CC[C@@H]2CN1C(=O)N2OS(=O)(=O)O [Ex. 1, (2S,5R)-7-Oxo-N-[(3S)-pyrrolidin-3-yloxy]-6-(sulfooxy)-1,6-diazabicyclo[3.2.1]octane-2-carboxamide]",MIC,E. coli JMI 10770,8 µg/mL
same,MIC Aztreonam + inhibitor,E. coli ATCC 25922; [1],≤.062 µg/mL
same,MIC Ceftazidime + inhibitor,E. coli ATCC 25922; [2],≤0.25 µg/mL
same,MIC Meropenem + inhibitor,E. coli ATCC 25922; [3],≤.031 µg/mL
same,MIC,"E. coli ATCC 25922; Escherichia coli, ATCC25922, substance alone",8 µg/mL
same,MIC,K.pneumo JMI 4109,4 µg/mL
same,MIC Meropenem + inhibitor,E. coli JMI 10768,≤.031 µg/mL
same,MIC Aztreonam + inhibitor,"E. coli JMI 11103; E. coli JMI 11103 (CTX-M15 (Intermediate ESBL)), Aztreonam + inhibitor at 4 µg/mL",≤.062 µg/mL
same,MIC Ceftazidime + inhibitor,"E. coli JMI 11103; E. coli JMI 11103 (CTX-M15 (Intermediate ESBL)), Ceftazidime + inhibitor at 4 µg/mL",≤0.25 µg/mL
same,MIC Meropenem + inhibitor,"E. coli JMI 11103; E. coli JMI 11103 (CTX-M15 (Intermediate ESBL)), Meropenem + inhibitor at 4 µg/mL",≤.031 µg/mL
same,MIC,"E. coli JMI 11103; Escherichia coli, JMI11103, E. coli JMI 11103 (CTX-M15 (Intermediate ESBL)), substance alone",8 µg/mL
same,MIC Aztreonam + inhibitor,E. cloacae JMI 36; [1],0.25 µg/mL
same,MIC Ceftazidime + inhibitor,E. cloacae JMI 36; [2],1 µg/mL
same,MIC Meropenem + inhibitor,E. cloacae JMI 36; [3],0.062 µg/mL
same,MIC,"E. cloacae JMI 36; Enterobacter cloacae, JMI36, substance alone, read-out: MIC",> 16 µg/mL
same,MIC Aztreonam + inhibitor,K. pneumo JMI 4106; [1],0.25 µg/mL
same,MIC Ceftazidime + inhibitor,K. pneumo JMI 4106; [2],≤0.25 µg/mL
same,MIC Meropenem + inhibitor,K. pneumo JMI 4106; [3],≤.031 µg/mL
same,MIC,"K. pneumo JMI 4106; substance alone, read-out: MIC",16 µg/mL
same,MIC Aztreonam + inhibitor,E.coli JMI 4103; [1],>4 µg/mL
same,MIC Ceftazidime + inhibitor,E.coli JMI 4103; [2],8 µg/mL
same,MIC Meropenem + inhibitor,E.coli JMI 4103; [3],≤.031 µg/mL
same,MIC,"E.coli JMI 4103; Escherichia coli, JMI4103, substance alone",16 µg/mL
same,MIC Aztreonam + inhibitor,K. pneumo JMI 2693; [1],0.125 µg/mL
same,MIC Ceftazidime + inhibitor,K. pneumo JMI 2693; [2],≤0.25 µg/mL
same,MIC Meropenem + inhibitor,K. pneumo JMI 2693; [3],0.062 µg/mL
same,MIC,K. pneumo JMI 2693; substance alone,> 16 µg/mL
same,MIC Aztreonam + inhibitor,E. coli JMI 2692; [1],0.25 µg/mL
same,MIC Ceftazidime + inhibitor,E. coli JMI 2692; [2],≤0.25 µg/mL
same,MIC Meropenem + inhibitor,E. coli JMI 2692; [3],≤.031 µg/mL
same,MIC,"E. coli JMI 2692; Escherichia coli, JMI2692, substance alone, read-out: MIC",4 µg/mL
same,MIC Aztreonam + inhibitor,K. pneumo JMI 2697; [1],0.25 µg/mL
same,MIC Ceftazidime + inhibitor,K. pneumo JMI 2697; [2],16 µg/mL
same,MIC Meropenem + inhibitor,K. pneumo JMI 2697; [3],>2 µg/mL
same,MIC,K. pneumo JMI 2697; substance alone,16 µg/mL
same,MIC,K. pneumo JMI 2674,> 16 µg/mL
same,MIC Aztreonam + inhibitor,"E. coli JMI 2671; E. coli JMI 2671 (VIM-19 (Cpase)), Aztreonam + inhibitor at 4 µg/mL",≤.062 µg/mL
same,MIC Ceftazidime + inhibitor,"E. coli JMI 2671; E. coli JMI 2671 (VIM-19 (Cpase)), Ceftazidime + inhibitor at 4 µg/mL",2 µg/mL
same,MIC Meropenem + inhibitor,"E. coli JMI 2671; E. coli JMI 2671 (VIM-19 (Cpase)), Meropenem + inhibitor at 4 µg/mL",2 µg/mL
same,MIC,"E. coli JMI 2671; Escherichia coli, JMI2671, E. coli JMI 2671 (VIM-19 (Cpase)), substance alone",4 µg/mL
same,MIC Aztreonam + inhibitor,"E. coli JMI 2665; E. coli JMI 2665 (CMY-2 (Plasmid Cpase)), Aztreonam + inhibitor at 4 µg/mL",≤.062 µg/mL
same,MIC Ceftazidime + inhibitor,"E. coli JMI 2665; E. coli JMI 2665 (CMY-2 (Plasmid Cpase)), Ceftazidime + inhibitor at 4 µg/mL",≤0.25 µg/mL
same,MIC Meropenem + inhibitor,"E. coli JMI 2665; E. coli JMI 2665 (CMY-2 (Plasmid Cpase)), Meropenem + inhibitor at 4 µg/mL",≤.031 µg/mL
same,MIC,"E. coli JMI 2665; Escherichia coli, JMI2665",4 µg/mL
same,MIC Aztreonam + inhibitor,P. aerug JMI 149; [1],>4 µg/mL
same,MIC Ceftazidime + inhibitor,P. aerug JMI 149; [2],4 µg/mL
same,MIC Meropenem + inhibitor,P. aerug JMI 149; [3],0.5 µg/mL
same,MIC,"P. aerug JMI 149; substance alone, read-out: MIC",> 16 µg/mL
same,MIC Meropenem + inhibitor,E. coli JMI 10767; [3],≤.031 µg/mL
same,MIC,"E. coli JMI 10767; Escherichia coli, JMI10767, substance alone",8 µg/mL
same,MIC Aztreonam + inhibitor,"E. coli JMI 4080; E. coli JMI 4080 (Tem-10), Aztreonam + inhibitor at 4 µg/mL",1 µg/mL
same,MIC Ceftazidime + inhibitor,"E. coli JMI 4080; E. coli JMI 4080 (Tem-10), Ceftazidime + inhibitor at 4 µg/mL",1 µg/mL
same,MIC Meropenem + inhibitor,"E. coli JMI 4080; E. coli JMI 4080 (Tem-10), Meropenem + inhibitor at 4 µg/mL",≤.031 µg/mL
same,MIC,"E. coli JMI 4080; Escherichia coli, JMI4080, E. coli JMI 4080 (Tem-10), substance alone",8 µg/mL
same,MIC Aztreonam + inhibitor,K. pneumo JMI 2681; [1],4 µg/mL
same,MIC Ceftazidime + inhibitor,K. pneumo JMI 2681; [2],4 µg/mL
same,MIC Meropenem + inhibitor,K. pneumo JMI 2681; [3],>2 µg/mL
same,MIC,"K. pneumo JMI 2681; substance alone, read-out: MIC",> 16 µg/mL
same,MIC,K. pneumo JMI 4088,4 µg/mL
same,MIC,P. aerug JMI 2686,> 16 µg/mL
same,MIC Aztreonam + inhibitor,A. baumanii JMI 2659; [1],>4 µg/mL
same,MIC Ceftazidime + inhibitor,A. baumanii JMI 2659; [2],>16 µg/mL
same,MIC Meropenem + inhibitor,A. baumanii JMI 2659; [3],2 µg/mL
same,MIC,"A. baumanii JMI 2659; Acinetobacter baumannii, JMI2659, substance alone, read-out: MIC",> 16 µg/mL
same,MIC,K. pneumo JMI 2673,> 16 µg/mL
